The record followed here is PMC12277872, “Design, Synthesis, In Vitro, and In Silico Studies of 5‐(Diethylamino)‐2‐Formylphenyl Naphthalene‐2‐Sulfonate Based Thiosemicarbazones as Potent Anti‐Alzheimer Agents” (Archiv Der Pharmazie, 2025).

One assay has as its target T1, BChE from equine serum (Equus caballus, UniProt P81908).
T1 construct: C7512‐ BChE from equine serum; purchased Sigma Aldrich C7512; host or cells: equine serum
In words: biochemical. Conditions: for IC50: BChI substrate, DTNB, 412 nm, Tris/HCl pH 8.0; for Ki: read-out: K i (nM) BChE. The protocol: (§1) Both […] (AChI) and butyrylcholine iodide (BChI) were used as substrates for the enzymatic hydrolysis reactions, with 5,5′‐dithiobis(2‐nitrobenzoic acid) (DTNB) serving as a common reagent for detecting the activities of AChE and BChE. The assay was conducted: 1 mL of 1.0 M Tris/HCl buffer (pH 8.0) was mixed with 10 μL of the sample solution in deionized water. To this mixture, 50 μL of AChE or BChE enzyme solution was added, and the reaction was incubated at room temperature for 10 min. After incubation, 50 μL of DTNB (0.5 mM) was introduced, followed by the addition of 50 μL of either AChI or BChI (10 mM), initiating the enzymatic reaction. The hydrolysis of the substrates was monitored spectrophotometrically by measuring the absorbance at 412 nm, corresponding to the formation of the yellow‐colored 5‐thio‐2‐nitrobenzoate anion. This color change is due to the reaction of DTNB with thiocholine released during the hydrolysis of AChI or BChI. For every inhibitor that was utilized, IC50 and K i values were determined. In this study, C7512‐ BChE from equine serum and C3389‐ AChE from Electrophorus electricus (electric eel) were purchased from Sigma Aldrich.

The target in assay [1] is T2, AChE from Electrophorus electricus (electric eel) (Electrophorus electricus, UniProt O42275).
T2 construct: purchased Sigma Aldrich C3389
In words: biochemical. Particulars: for IC50: AChI substrate, DTNB, 412 nm, Tris/HCl pH 8.0; for Ki: read-out: K i (nM) AChE. As for the experimental part: as §1, with “The hydrolysis of the substrates was monitored spectrophotometrically by measuring the absorbance at 412 nm, corresponding to the formation of the yellow‐colored 5‐thio‐2‐nitrobenzoate anion.” left out

For the next assay, the target named is T3, hMAO‐B (Homo sapiens, UniProt P27338).
T3 construct: purchased Sigma Aldrich M7441
T3 sequence (P27338 1-520): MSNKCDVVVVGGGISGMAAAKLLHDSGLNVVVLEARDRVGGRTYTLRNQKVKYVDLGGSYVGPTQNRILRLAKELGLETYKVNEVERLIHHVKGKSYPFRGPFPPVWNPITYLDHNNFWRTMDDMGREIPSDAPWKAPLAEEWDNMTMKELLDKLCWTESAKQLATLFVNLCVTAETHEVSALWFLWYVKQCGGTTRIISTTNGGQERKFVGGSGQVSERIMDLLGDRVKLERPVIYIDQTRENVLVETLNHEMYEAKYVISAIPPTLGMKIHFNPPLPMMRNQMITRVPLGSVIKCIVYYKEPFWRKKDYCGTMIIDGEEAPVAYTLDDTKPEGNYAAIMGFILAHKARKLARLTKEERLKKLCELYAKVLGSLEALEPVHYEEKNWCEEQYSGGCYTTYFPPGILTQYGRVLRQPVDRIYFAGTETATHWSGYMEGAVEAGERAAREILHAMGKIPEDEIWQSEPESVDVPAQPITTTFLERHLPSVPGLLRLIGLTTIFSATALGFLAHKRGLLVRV
In words: In vitro fluorometric MAO-B inhibition assay (tyramine substrate, horseradish peroxidase coupling). In kind it is biochemical. As for the experimental part: (§2) The in vitro fluorometric technique was used to assess each newly generated substance's inhibitory activity against hMAO‐A and hMAO‐B. In a horseradish peroxidase coupling reaction, the oxired reagent (10‐acetyl‐3,7‐dihydroxyphenoxazine) detects H2O2, a result of the oxidative deamination of tyramine, which is utilized as an MAO substrate. The test was carried out in two steps. First, each compound's concentrations of 10^–3 and 10^–4 M were investigated. […] These parameters of this study were made as in previous studies. We purchased these two enzymes from Sigma Aldrich (M7316‐Monoamine Oxidase A human and M7441‐ […]).

Another assay has as its target T4, hMAO‐A (Homo sapiens, UniProt P21397).
T4 construct: purchased Sigma Aldrich M7316
T4 sequence (P21397 1-527): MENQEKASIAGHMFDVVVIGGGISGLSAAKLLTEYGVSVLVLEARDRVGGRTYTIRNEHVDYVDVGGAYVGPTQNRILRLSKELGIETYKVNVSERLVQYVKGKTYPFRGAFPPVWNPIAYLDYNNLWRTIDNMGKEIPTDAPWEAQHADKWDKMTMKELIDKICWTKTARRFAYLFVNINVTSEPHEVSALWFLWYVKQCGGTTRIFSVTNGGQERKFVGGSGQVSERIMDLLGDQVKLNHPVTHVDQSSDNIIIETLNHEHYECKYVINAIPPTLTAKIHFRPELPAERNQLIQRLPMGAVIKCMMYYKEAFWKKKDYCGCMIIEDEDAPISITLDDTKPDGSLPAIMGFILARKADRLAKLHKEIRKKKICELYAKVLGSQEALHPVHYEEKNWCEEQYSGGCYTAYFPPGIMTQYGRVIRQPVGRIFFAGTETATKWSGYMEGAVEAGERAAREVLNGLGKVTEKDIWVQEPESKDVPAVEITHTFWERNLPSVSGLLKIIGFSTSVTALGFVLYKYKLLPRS
In words: In vitro fluorometric MAO-A inhibition assay (tyramine substrate, horseradish peroxidase coupling). In kind it is biochemical. As for the experimental part:
as §2

T1 sequence (P81908 whole entry): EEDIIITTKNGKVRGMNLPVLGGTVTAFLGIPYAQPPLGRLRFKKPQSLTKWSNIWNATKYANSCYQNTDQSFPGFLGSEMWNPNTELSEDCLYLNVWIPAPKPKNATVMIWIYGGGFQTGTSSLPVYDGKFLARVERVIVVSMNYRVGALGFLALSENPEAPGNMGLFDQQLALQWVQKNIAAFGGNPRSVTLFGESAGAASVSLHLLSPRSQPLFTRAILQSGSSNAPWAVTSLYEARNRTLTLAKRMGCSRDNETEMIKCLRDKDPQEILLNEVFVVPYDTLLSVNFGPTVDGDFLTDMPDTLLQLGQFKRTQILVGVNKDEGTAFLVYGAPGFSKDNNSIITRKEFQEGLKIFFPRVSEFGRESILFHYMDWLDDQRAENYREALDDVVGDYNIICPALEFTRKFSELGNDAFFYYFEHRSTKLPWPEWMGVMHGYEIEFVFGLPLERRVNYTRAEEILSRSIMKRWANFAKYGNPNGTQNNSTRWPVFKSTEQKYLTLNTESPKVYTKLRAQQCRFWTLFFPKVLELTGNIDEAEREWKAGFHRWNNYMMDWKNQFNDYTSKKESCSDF
T2 sequence (O42275 24-633): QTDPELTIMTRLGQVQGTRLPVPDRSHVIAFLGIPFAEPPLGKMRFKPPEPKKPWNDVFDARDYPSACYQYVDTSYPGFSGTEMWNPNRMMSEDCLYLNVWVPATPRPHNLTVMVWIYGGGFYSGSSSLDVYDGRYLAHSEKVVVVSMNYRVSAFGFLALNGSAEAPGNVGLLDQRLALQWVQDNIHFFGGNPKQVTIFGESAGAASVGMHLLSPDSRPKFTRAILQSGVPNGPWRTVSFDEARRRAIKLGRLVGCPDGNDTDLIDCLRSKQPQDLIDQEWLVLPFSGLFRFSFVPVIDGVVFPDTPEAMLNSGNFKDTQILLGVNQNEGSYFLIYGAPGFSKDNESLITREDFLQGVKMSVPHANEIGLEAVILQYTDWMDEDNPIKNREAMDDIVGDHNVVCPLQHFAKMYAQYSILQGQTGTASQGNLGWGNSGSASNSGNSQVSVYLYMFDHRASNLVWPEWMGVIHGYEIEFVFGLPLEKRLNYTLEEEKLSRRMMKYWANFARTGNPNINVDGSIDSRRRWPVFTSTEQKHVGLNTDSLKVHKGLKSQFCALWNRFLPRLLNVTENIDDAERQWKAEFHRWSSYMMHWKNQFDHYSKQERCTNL

`CCN(CC)c1ccc(C=NNC(=S)NCCCSC)c(OS(=O)(=O)c2ccc3ccccc3c2)c1` [Compound 5g]: the IC50 at BChE from equine serum came to 287 ± 8.57 nM; in assay [1], 80.4 ± 7.62 nM; against hMAO‐B it was 399 ± 7.93 nM; at hMAO‐A, 188 ± 5.36 nM. The Ki on BChE from equine serum was 258 ± 16.1 nM; in assay [1], 72.4 ± 10.1 nM.

As to `CCN(CC)c1ccc(/C=N/NC(=S)NC)c(OS(=O)(=O)c2ccc3ccccc3c2)c1` [Compound 5m, (E)‐5‐(Diethylamino)‐2‐{[2‐(methylcarbamothioyl)hydrazono]methyl}phenyl naphthalene‐2‐sulfonate], the half-inhibitory concentration (IC50) against BChE from equine serum amounted to 214 ± 7.13 nM; in assay [1] it was 38.5 ± 3.21 nM; against hMAO‐B it was 369 ± 11.2 nM; against hMAO‐A, 132 ± 4.96 nM. In addition, the Ki amounted to 193 ± 11.6 nM on BChE from equine serum and 30.2 ± 5.02 nM in assay [1].

Turning to `CCN(CC)c1ccc(/C=N/NC(=S)Nc2ccc(Br)cc2)c(OS(=O)(=O)c2ccc3ccccc3c2)c1` [Compound 5b, (E)‐2‐({2‐[(4‐Bromophenyl)carbamothioyl]hydrazono}methyl)‐5‐(diethylamino)phenyl naphthalene‐2‐sulfonate], the concentration for half-maximal inhibition (IC50) against BChE from equine serum amounted to 202 ± 5.66 nM; in assay [1], 33.8 ± 3.41 nM; against hMAO‐B it was 410 ± 7.47 nM; against hMAO‐A, 132 ± 7.01 nM. Moreover, the Ki at BChE from equine serum is 191 ± 15.7 nM; in assay [1], 26.6 ± 3.34 nM.

As to `CCN(CC)c1ccc(/C=N/NC(=S)Nc2c(Cl)cccc2Cl)c(OS(=O)(=O)c2ccc3ccccc3c2)c1` [Compound 5u, (E)‐2‐({2‐[(2,6‐Dichlorophenyl)carbamothioyl]hydrazono}methyl)‐5‐(diethylamino)phenyl naphthalene‐2‐sulfonate], the IC50 against BChE from equine serum was found to be 148 ± 7.35 nM; in assay [1], 12.9 ± 1.02 nM; on hMAO‐B it was 209 ± 5.84 nM; on hMAO‐A, 96.2 ± 5.77 nM. Moreover, the Ki was determined as 112 ± 7.61 nM at BChE from equine serum and 9.82 ± 1.76 nM in assay [1].

Consider `CCN(CC)c1ccc(/C=N/NC(=S)Nc2ccc(Cl)cc2)c(OS(=O)(=O)c2ccc3ccccc3c2)c1` [Compound 5i, (E)‐2‐({2‐[(4‐Chlorophenyl)carbamothioyl]hydrazono}methyl)‐5‐(diethylamino)phenyl naphthalene‐2‐sulfonate], for which the 50% inhibitory concentration (IC50) on BChE from equine serum was 200 ± 9.41 nM; in assay [1] it was 24.8 ± 2.41 nM; against hMAO‐B, 285 ± 4.02 nM; on hMAO‐A, 121 ± 3.15 nM. Moreover, the Ki at BChE from equine serum was 190 ± 13.6 nM; in assay [1], 21 ± 4.12 nM.

With `CCN(CC)c1ccc(/C=N/NC(=S)NCC(C)C)c(OS(=O)(=O)c2ccc3ccccc3c2)c1` [Compound 5f, (E)‐5‐(Diethylamino)‐2‐{[2‐(isobutylcarbamothioyl)hydrazono]methyl}phenyl naphthalene‐2‐sulfonate], the IC50 at BChE from equine serum was 254 ± 6.31 nM; in assay [1], 49.5 ± 5.21 nM; on hMAO‐B, 388 ± 5.37 nM; against hMAO‐A, 134 ± 8.04 nM. Further, the Ki on BChE from equine serum worked out at 240 ± 18.6 nM; in assay [1] it was 38.8 ± 6.18 nM.

As to `CCN(CC)c1ccc(/C=N/NC(=S)Nc2ccccc2C(F)(F)F)c(OS(=O)(=O)c2ccc3ccccc3c2)c1` [Compound 5h, (E)‐5‐(Diethylamino)‐2‐[(2‐{[2‐(trifluoromethyl)phenyl]carbamothioyl}hydrazineylidene)methyl]phenyl naphthalene‐2‐sulfonate], the IC50 amounted to 145 ± 8.96 nM against BChE from equine serum, 16.8 ± 1.35 nM in assay [1], 249 ± 9.1 nM at hMAO‐B and 100 ± 4.57 nM against hMAO‐A. The figures for the Ki (at BChE from equine serum; in assay [1]) were 136 ± 9.17 nM and 14.6 ± 3.36 nM, respectively.

As to `CCN(CC)c1ccc(/C=N/NC(=S)NC2CCCCC2)c(OS(=O)(=O)c2ccc3ccccc3c2)c1` [Compound 5p, (E)‐2‐{[2‐(Cyclohexylcarbamothioyl)hydrazono]methyl}‐5‐(diethylamino)phenyl naphthalene‐2‐sulfonate], the IC50 against BChE from equine serum turned out to be 254 ± 8.08 nM; in assay [1], 54.5 ± 4.57 nM; against hMAO‐B it was 327 ± 9.13 nM; at hMAO‐A, 145 ± 3.57 nM. Also, the Ki at BChE from equine serum was determined as 226 ± 12.6 nM; in assay [1] it was 47.1 ± 6.35 nM.

On to `CCN(CC)c1ccc(/C=N/NC(=S)NCc2ccc(Cl)cc2)c(OS(=O)(=O)c2ccc3ccccc3c2)c1` [Compound 5q, (E)‐2‐({2‐[(4‐Chlorobenzyl)carbamothioyl]hydrazono}methyl)‐5‐(diethylamino)phenyl naphthalene‐2‐sulfonate], for which the half-inhibitory concentration (IC50) at BChE from equine serum worked out at 202 ± 14.9 nM; in assay [1] it was 19.3 ± 1.28 nM; against hMAO‐B, 308 ± 6.07 nM; against hMAO‐A it was 119 ± 9.24 nM. The Ki turned out to be 183 ± 11.5 nM at BChE from equine serum and 17.6 ± 3.34 nM in assay [1].
